What was measured:
[1] = Average body weight of the administration groups in the hypoxia test; format: in vivo
Description: After the hypoxic stimulation for 3 weeks, a 1.2-Fr catheter (SciSense Inc., Ontario, Canada) was inserted in the jugular vein of the mice under isoflurane anesthesia and advanced into the right ventricle to measure a right ventricular systolic pressure. In addition, after the measurement of the right ventricular systolic pressure, the heart and the lungs were dissected. For the heart, the right ventricle and the left ventricle were separated and their weight ratio was measured to assess right ventricular hypertrophy. The average body weights of the Control group (PPARα agonist: −, Hypoxia [3 wks]: −), the Vehicle group (PPARα agonist: −, Hypoxia [3 wks]: +), and the WY-14643 administration group (PPARα agonist: +, Hypoxia [3 wks]: +) before the test were 29.2±1.2 g, 28.9±1.0 g, and 29.6±1.4 g, respectively. In addition, the average body weights of the Control group, the Vehicle group, and the WY-14643 administration group after the test were 32.1±2.1 g, 23.5±1.8 g, and 25.7±2.0 g, respectively.

[2] = system: hypoxia-induced pulmonary hypertension mice; settings: WY-14643 3 mg/kg/day by mixed feed
Description: Hypoxia-induced pulmonary hypertension mice serving as a model generally used in an animal experiment for pulmonary hypertension were administered a PPARα agonist (WY-14643, Sigma) at 3 mg/kg/day by mixed feed. Specifically, first, 8-week-old male wild-type mice (Balb/c mice, n=12 per group) were housed in a transparent acrylic box with an oxygen concentration controlled to 10% using a hypoxia generator (Teijin Limited, Japan) under a 12 h light and dark cycle. The mice were stimulated by hypoxia for 3 weeks, and a diet in this period was mixed with WY-14643 (the following solution was used as WY-14643: 1 mg of WY-14643 was dissolved in 0.1 ml of DMSO, and the solution of WY-14643 in DMSO was mixed with ultrapure water (mQ or ultrapure water) to prepare a 100 ml solution). The administration by mixed feed was performed at 3 mg/kg/day according to the previous report (Andrew D, et al. Hepatology. 2012; 56: 281-290). […] The following tests were also performed as controls: a test in which the mice were stimulated by hypoxia in the same manner as described above except that the mice were administered a 1:1,000 (V/V) mixed solution of DMSO and ultrapure water by mixed feed in place of WY-14643 as a diet; and a test in which the mice were administered the mixed solution of DMSO and ultrapure water by mixed feed in place of WY-14643 as a diet and were not stimulated by hypoxia.
After the hypoxic stimulation for 3 weeks, a 1.2-Fr catheter (SciSense Inc., Ontario, Canada) was inserted in the jugular vein of the mice under isoflurane anesthesia and advanced into the right ventricle to measure a right ventricular systolic pressure. In addition, after the measurement of the right ventricular systolic pressure, the heart and the lungs were dissected. For the heart, the right ventricle and the left ventricle were separated and their weight ratio was measured to assess right ventricular hypertrophy.
In addition, in tissue slides of the formalin-fixed lungs of each group, the number of pulmonary vessels including thrombi was counted for a field of about 100 mm^2, and the number of the pulmonary vessels including thrombi per 100 mm^2 was calculated. […] The resultant plasma sample was measured for its D-dimer concentration in plasma (unit: ng/ml) through the use of an ELISA kit (CEA506Mu manufactured by Life Science Inc.) according to the instruction of the kit. In addition, the plasma sample was measured for its thrombin-antithrombin complex (TAT) concentration in plasma (unit: pg/ml) through the use of an ELISA kit (SEA831Mu manufactured by Life Science Inc.) according to the instruction of the kit.
The dissected lungs were fixed with 10% formalin for 24 hours, and then 3 μm sections of the specimens were used to prepare slides. The slides were subjected to Elastica-Masson staining for staining elastic fiber in order to assess vessel wall thickening (remodeling). 60 to 80 distal pulmonary arteries having diameters of from 20 μm to 70 μm were observed per mouse, and their wall thickening was divided into 3 stages.

Row | Structure (SMILES) | average body weight after the test ([1]; WY-14643 administration group, 3 mg/kg/day, after 3 weeks hypoxia, Example 1) | thrombus formation (number of pulmonary vessels including thrombi per 100 mm^2) ([2]; chronic hypoxic stimulation 3 weeks, lung tissue slides (FIG. 2)) | pulmonary hypertension (overall result) ([2]; hypoxia 3 weeks) | remodeling of distal pulmonary vessels (Elastica-Masson staining) ([2]; hypoxia 3 weeks (FIG. 3)) | right ventricular hypertrophy (right ventricle/(left ventricle plus septum) weight ratio) ([2]; hypoxia 3 weeks, Balb/c mice (FIG. 1)) | D-dimer/TAT ratio (indicator of impaired fibrinolytic capacity) ([2]; hypoxia 3 weeks, plasma, ELISA (FIG. 2)) | right ventricular systolic pressure ([2]; hypoxia (10% oxygen) 3 weeks, Balb/c mice, vs vehicle (FIG. 1)) | average body weight after the test ([1]; fenofibrate administration group, 50 mg/kg/day, Example 3)
1 | Cc1cccc(Nc2cc(Cl)nc(SCC(=O)O)n2)c1C [WY-14643, [[4-chloro-6-[(2,3-dimethylphenyl)amino]pyrimidin-2-yl]thio]acetic acid] | 25.7 ± 2.0 g | suppressed the increase in thrombus formation | ameliorated pulmonary hypertension | significant reduction | Significant reductions | its reduction was found | Significant reductions | –
2 | CC(C)OC(=O)C(C)(C)Oc1ccc(C(=O)c2ccc(Cl)cc2)cc1 [fenofibrate, isopropyl 2-[4-(4-chlorobenzoyl)phenoxy]-2-methylpropionate] | – | – | – | – | – | – | – | 334.30 ± 20.67 g

From patent US20210369664A1, “PROPHYLACTIC OR THERAPEUTIC AGENT FOR PULMONARY HYPERTENSION WHICH COMPRISES PPAR? AGONIST” (TOHOKU UNIVERSITY, priority 2016, published 2021)
